Source: patent publication US11548880B2, “Modulators of hemoglobin” (Global Blood Therapeutics, Inc., priority 2018, dated 2023)

Tests used:
Hb = target: T1, Hb (Homo sapiens, UniProt P68871+P69905); assay: Whole blood assay: oxygen equilibrium curves (Hemox Analyzer), change in p50; type: cell-based; details: whole blood incubated 1 h at 37° C., equimolar ratio of hemoglobin to compound
T1 construct: from tissue; host or cells: whole blood
Protocol: Whole blood assay: Oxygen equilibrium curves (OECs) were collected using a TCS Hemox Analyzer (TCS Scientific Company, New Hope, Pa., USA) to measure changes in the binding affinity of O2 to Hb. Whole blood was incubated for 1 h at 37° C. with the indicated compounds in an equimolar ratio of hemoglobin to compound and diluted into TES (2-[[1,3-dihydroxy-2-(hydroxymethyl)propan-2-yl]amino]ethanesulfonic acid)/saline buffer prior to measurements. For example, for whole blood at 20% hematocrit [Hct], which corresponds to 1 mM Hb, a compound concentration of 1 mM was used (for example, for compounds 1-5), and the incubated sample diluted 50- to 100-fold. The concentration for compounds 6-44 (Diastereomers 1 and 2) varied but remained in equimolar ratio to hemoglobin. The diluted samples were then oxygenated with compressed air within the Hemox Analyzer and the OECs were collected during deoxygenation as previously described (Guarnone et al., Haematologica, 1995, 80, 426-430). p 50 (partial pressure of O2 at which Hb is 50% saturated with O2) values were obtained using a non-linear regression analysis. Percentage change in p50 [Δp50(%)] was calculated as follows: Δp50(%)=[(p50 of control)−p50 with compound)/p50 control]×100.

Rat PK, oral gavage = type: in vivo, Sprague-Dawley rats; details: oral gavage 10 mg/kg; for blood plasma ratio / half-life: male, Sprague-Dawley, rat, po, 10 mg/kg; for blood plasma ratio: whole blood and plasma; for half-life: whole blood
Protocol: Rat PK: A group of fasted male Sprague-Dawley rats were dosed via oral gavage at 10 mg/kg with test articles formulated in 0.5% methylcellulose suspension. Blood samples were collected through jugular vein at pre-selected time points. Blood samples were prepared by protein precipitation with ACN, vortexed and then centrifuged before supernatants were transferred for bioanalysis. Test article concentrations were measured by HPLC-MS-MS. Pharmacokinetic parameters were calculated using non-compartment analysis. The blood/plasma ratio was calculated by dividing the AUClast (i.e., the area under the curve calculated from t=0 to the last detectable time-point) in blood by the AUClast in plasma. The T1/2 was calculated via a linear regression of the terminal phase of the blood-time concentration profile.

PXR nuclear receptor = target: T2, PXR nuclear receptor (Homo sapiens, UniProt O75469); assay: CYP (PXR) assay: PXR nuclear receptor activation in DPX2 reporter cells; type: cell-based; details: fold PXR activation, 24 h
T2 construct: expressed in transfected cells; host or cells: DPX2 (stably transfected human hepatoma cells)
T2 sequence (O75469 1-434): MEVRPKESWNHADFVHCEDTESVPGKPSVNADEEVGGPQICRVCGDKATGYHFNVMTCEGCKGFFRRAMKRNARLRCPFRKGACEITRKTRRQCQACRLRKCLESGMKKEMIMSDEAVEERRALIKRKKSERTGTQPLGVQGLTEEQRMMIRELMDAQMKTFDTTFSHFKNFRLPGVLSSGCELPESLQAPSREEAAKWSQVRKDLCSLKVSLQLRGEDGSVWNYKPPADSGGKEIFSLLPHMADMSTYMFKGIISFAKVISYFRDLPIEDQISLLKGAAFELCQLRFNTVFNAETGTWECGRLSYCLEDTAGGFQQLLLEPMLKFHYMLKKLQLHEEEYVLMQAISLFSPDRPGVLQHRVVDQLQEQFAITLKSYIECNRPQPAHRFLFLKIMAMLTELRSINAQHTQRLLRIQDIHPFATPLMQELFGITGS
Protocol: CYP (PXR) Assay: PXR nuclear receptor activation utilizing stably-transfected human hepatoma cell lines (DPX2) were seeded in a 96-well plate. Twenty-four hours after seeding, the cells were treated with selected concentrations of compounds in duplicate wells, and cells then returned to the incubator for an additional 24 h. At the end of this incubation period, the number of viable cells/well were determined using Promega's Cell Titer Fluor cytotoxicity assay. Subsequently, Promega's ONE-Glo were added to the same wells and reporter gene activity were assessed. The average luminescent units for each compound dose of two replicates were divided by the average for the DMSO solvent control to determine the fold-induction. In accordance with industry standard, a threshold of ≥2.5-fold was used to flag compounds that have in vivo CYP induction risk.

[1] = AUClast in blood divided by AUClast in plasma, rats
[2] = fasted male Sprague-Dawley rats, 0.5% methylcellulose suspension, blood

T1 sequence (P69905 2-142 limits assumed): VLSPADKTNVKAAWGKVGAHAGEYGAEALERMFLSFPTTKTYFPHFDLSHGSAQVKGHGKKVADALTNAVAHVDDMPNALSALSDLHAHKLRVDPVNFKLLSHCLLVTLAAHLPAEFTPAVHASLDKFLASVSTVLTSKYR
T1 sequence (P68871 2-147 limits assumed): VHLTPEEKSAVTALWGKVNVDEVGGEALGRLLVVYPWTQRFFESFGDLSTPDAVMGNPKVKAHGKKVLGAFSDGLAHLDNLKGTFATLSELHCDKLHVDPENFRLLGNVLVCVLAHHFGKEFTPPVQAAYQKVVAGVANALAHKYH

## O=Cc1c(O)cccc1OC[C@@H]1CCCCN1C(=O)c1cccnc1C(O)CO (stereo partly drawn) [Compound 36, 2-{[(2S)-1-[2-(1,2-dihydroxyethyl)pyridine-3-carbonyl]piperidin-2-yl]methoxy}-6-hydroxybenzaldehyde]
Hb
  Delta-p50 (%): 77.04%
Rat PK, oral gavage; [1]
  blood plasma ratio: 115
Rat PK, oral gavage; [2]
  half-life: 56 h

## O=Cc1c(O)cccc1OC[C@@H]1CSCCN1C(=O)c1ccccc1C(O)CO (single isomer, unassigned) [35 (Diastereomer 2)]
Hb
  Delta-p50 (%): 83.1%
Rat PK, oral gavage; [1]
  Blood/Plasma ratio: 636
Rat PK, oral gavage; [2]
  T1/2: 89 h

## O=Cc1c(O)cccc1OC[C@@H]1CCCCN1C(=O)c1cccnc1 [Reference Compound A, reference compound]
PXR nuclear receptor; at 30 μM
  CYP (PXR) Flag: Y (PXR activation ≥ 2.5-fold)
Rat PK, oral gavage; [1]
  blood plasma ratio: 75
Rat PK, oral gavage; [2]
  half-life: 29 h

## O=Cc1c(O)cccc1OC[C@@H]1COCCN1C(=O)c1ccccc1 [Reference Compound B, reference compound]
PXR nuclear receptor; at 30 μM
  CYP (PXR) Flag: Y (PXR activation ≥ 2.5-fold)
Rat PK, oral gavage; [1]
  blood plasma ratio: 98
Rat PK, oral gavage; [2]
  half-life: 29.8 h

## COCCc1ncccc1C(=O)N1CCOC[C@H]1COc1cccc(O)c1C=O [Compound 20, 2-hydroxy-6-{[(3S)-4-[2-(2-methoxyethyl)pyridine-3-carbonyl]morpholin-3-yl]methoxy}benzaldehyde]
Hb
  Delta-p50 (%): 78.32%
Rat PK, oral gavage; [1]
  blood plasma ratio: 45
Rat PK, oral gavage; [2]
  half-life: 65 h

## O=Cc1c(O)cccc1OCC1CSCCN1C(=O)c1ccccc1CO (single isomer, unassigned) [40 (Enantiomer 2)]
Hb
  Delta-p50 (%): 83.36%
Rat PK, oral gavage; [1]
  blood plasma ratio: 424
Rat PK, oral gavage; [2]
  half-life: 117 h

## Cc1ncccc1C(=O)N1CCCC[C@H]1COc1cccc(O)c1C=O [Reference Compound C, reference compound]
PXR nuclear receptor; at 25 μM
  CYP (PXR) Flag: Y^1 (PXR activation ≥ 2.5-fold)

## O=Cc1c(O)cccc1OC[C@@H]1CCCCN1C(=O)c1cccnc1CO [Compound 11, (S)-2-hydroxy-6-((1-(2-(hydroxymethyl)nicotinoyl)piperidin-2-yl)methoxy)benzaldehyde]
Hb
  Delta-p50 (%): 79.3%
Rat PK, oral gavage; [1]
  blood plasma ratio: 126
Rat PK, oral gavage; [2]
  half-life: 55 h

## CC(C)(O)Cc1ncccc1C(=O)N1CCOC[C@H]1COc1cccc(O)c1C=O [Compound 39, 2-hydroxy-6-{[(3S)-4-[2-(2-hydroxy-2-methylpropyl)pyridine-3-carbonyl]morpholin-3-yl]methoxy}benzaldehyde]
Hb
  Delta-p50 (%): 77.98%
Rat PK, oral gavage; [1]
  blood plasma ratio: 52
Rat PK, oral gavage; [2]
  half-life: 52 h

## O=Cc1c(O)cccc1OC[C@@H]1COCCN1C(=O)c1cccnc1CO [Compound 12, (S)-2-hydroxy-6-((4-(2-(hydroxymethyl)nicotinoyl)morpholin-3-yl)methoxy)benzaldehyde]
Hb
  Delta-p50 (%): 76.7%
PXR nuclear receptor; at 30 μM
  CYP (PXR) Flag: N (PXR activation < 2.5-fold)
Rat PK, oral gavage; [1]
  blood plasma ratio: 131
Rat PK, oral gavage; [2]
  half-life: 58 h

## O=Cc1c(O)cccc1OCC1CSCCN1C(=O)c1cccnc1CO (single isomer, unassigned) [Compound 13 (Enantiomer 1), 2-hydroxy-6-((4-(2-(hydroxymethyl)nicotinoyl)-thiomorpholin-3-yl)-methoxy)benzaldehyde]
Hb
  Delta-p50 (%): 80.6%
PXR nuclear receptor; at 30 μM
  CYP (PXR) Flag: N (PXR activation < 2.5-fold)
Rat PK, oral gavage; [1]
  blood plasma ratio: 230
Rat PK, oral gavage; [2]
  half-life: 88 h

## O=Cc1c(O)cccc1OC[C@@H]1CCCCN1C(=O)c1cccnc1CCO [Compound 1, (S)-2-hydroxy-6-((1-(2-(2-hydroxyethyl)nicotinoyl)piperidin-2-yl)methoxy)benzaldehyde]
Hb
  Delta-p50 (%): 77.3%
PXR nuclear receptor; at 25 μM
  CYP (PXR) Flag: N^1 (PXR activation < 2.5-fold)
Rat PK, oral gavage; [1]
  blood plasma ratio: 162
Rat PK, oral gavage; [2]
  half-life: 58 h

## O=Cc1c(O)cccc1OC[C@@H]1COCCN1C(=O)c1ccccc1CO [Compound 23, 2-hydroxy-6-{[(3S)-4-[2-(hydroxymethyl)benzoyl]morpholin-3-yl]methoxy}benzaldehyde]
Hb
  Delta-p50 (%): 70.92%
Rat PK, oral gavage; [1]
  blood plasma ratio: 59
Rat PK, oral gavage; [2]
  half-life: 62 h

## COCCc1ncccc1C(=O)N1CCC[C@H]1COc1cccc(O)c1C=O [Compound 24, 2-hydroxy-6-{[(2S)-1-[2-(2-methoxyethyl)pyridine-3-carbonyl]pyrrolidin-2-yl]methoxy}benzaldehyde]
Hb
  Delta-p50 (%): 65.51%

## COCCc1nccnc1C(=O)N1CCC[C@H]1COc1cccc(O)c1C=O [Compound 25, 2-hydroxy-6-{[(2S)-1-[3-(2-methoxyethyl)pyrazine-2-carbonyl]pyrrolidin-2-yl]methoxy}benzaldehyde]
Hb
  Delta-p50 (%): 53.36%

## O=Cc1c(O)cccc1OC[C@@H]1CCCCN1C(=O)c1ccccc1CO [Compound 5, (S)-2-hydroxy-6-((1-(2-(hydroxymethyl)benzoyl)piperidin-2-yl)methoxy)benzaldehyde]
Hb
  Delta-p50 (%): 81.0%

## COCCc1ccccc1C(=O)N1CCOC[C@H]1COc1cccc(O)c1C=O [Compound 29, 2-hydroxy-6-{[(3S)-4-[2-(2-methoxyethyl)benzoyl]morpholin-3-yl]methoxy}benzaldehyde]
Hb
  Delta-p50 (%): 78.79%

## O=Cc1c(O)cccc1OC[C@@H]1CSCCN1C(=O)c1ccccc1C(O)CO (single isomer, unassigned) [35 (Diastereomer 1)]
Hb
  Delta-p50 (%): 81.35%
Rat PK, oral gavage; [1]
  blood plasma ratio: 493
Rat PK, oral gavage; [2]
  half-life: 102 h

## O=Cc1c(O)cccc1OCC1CSCCN1C(=O)c1cccnc1CCO (single isomer, unassigned) [10 (Enantiomer 1), 2-hydroxy-6-((4-(2-(2-hydroxyethyl)nicotinoyl)-thiomorpholin-3-yl)-methoxy)benzaldehyde]
Hb
  Delta-p50 (%): 65.6%

## CC(O)c1ncccc1C(=O)N1CCSC[C@H]1COc1cccc(O)c1C=O (single isomer, unassigned) [43 (Diastereomer 1)]
Hb
  Delta-p50 (%): 64.50%

## O=Cc1c(O)cccc1OCC1CSCCN1C(=O)c1cccnc1CO (single isomer, unassigned) [13 (Enantiomer 2), 2-hydroxy-6-((4-(2-(hydroxymethyl)nicotinoyl)-thiomorpholin-3-yl)-methoxy)benzaldehyde]
Hb
  Delta-p50 (%): 61.0%

## O=Cc1c(O)cccc1OC[C@@H]1CCCCN1C(=O)c1ccccc1CCN1CCCC1 [Compound 17, (S)-2-hydroxy-6-((1-(2-(2-(pyrrolidin-1-yl)ethyl)benzoyl)piperidin-2-yl)methoxy)benzaldehyde]
Hb
  Delta-p50 (%): 27.09%

## O=Cc1c(O)cccc1OC[C@@H]1CCCCN1C(=O)c1ncccc1CCO [Compound 16, (S)-2-hydroxy-6-((1-(3-(2-hydroxyethyl)picolinoyl)piperidin-2-yl)methoxy)benzaldehyde]
Hb
  Delta-p50 (%): 49.55%

## O=Cc1c(O)cccc1OC[C@@H]1CCCCN1C(=O)c1cccnc1CCCO [Compound 18, (S)-2-hydroxy-6-((1-(2-(3-hydroxypropyl)nicotinoyl)-piperidin-2-yl)methoxy)-benzaldehyde]
Hb
  Delta-p50 (%): 79.67%

## O=Cc1c(O)cccc1OCC1CSCCN1C(=O)c1cccnc1CCO (single isomer, unassigned) [10 (Enantiomer 2)]
Hb
  Delta-p50 (%): 87.3%
Rat PK, oral gavage; [1]
  blood plasma ratio: 212
Rat PK, oral gavage; [2]
  half-life: 112 h

## O=Cc1c(O)cccc1OC[C@H]1CCCCN1C(=O)c1cccnc1CCO [Compound 38, 2-hydroxy-6-{[(2R)-1-[2-(2-hydroxyethyl)pyridine-3-carbonyl]piperidin-2-yl]methoxy}benzaldehyde]
Hb
  Delta-p50 (%): 60.85%
